Experimental data reported in publication PMC9227918 (Toxins, 2022).

Tests used:
Type in all cases: in vitro ADME
[1] = Hepatic phase I metabolism, incubation with horse liver microsomes and NADPH-regenerating system; conditions: for identified pI metabolites: horse liver microsomes 5 mg/mL, 0.04 mg/mL PSD, 90 min, 37 °C, HPLC-Orbitrap-HRMS; for extent of pI transformation / metabolite formation: horse microsomes compared with human microsomes
[2] = Hepatic phase II metabolism (glucuronidation), human liver microsomes with UDPGA
[3] = Hepatic phase I metabolism, incubation with human liver microsomes and NADPH-regenerating system; conditions: for main pI metabolite: human liver microsomes 5 mg/mL, 0.04 mg/mL PSD, 90 min, 37 °C, HPLC-DAD-Orbitrap-HRMS
[4] = Hepatic phase II metabolism (sulfation), human liver cytosol with PAPS; conditions: HPLC-QTOF-HRMS
[5] = Hepatic phase II metabolism (sulfation), horse liver cytosol with PAPS; conditions: horse cytosol compared with human cytosol (Figure 7b)
[6] = Hepatic phase II metabolism (glucuronidation), horse liver microsomes with UDPGA; conditions: UDPGA 0.3 mM, 0.02 mg/mL PSD, 90 min, HPLC-Orbitrap-HRMS

Compound | identified pI metabolites [1] | main pI metabolite [3] | extent of pI transformation / metabolite formation [1] | other results
CC(=O)O[C@@H]1[C@H](OC(C)=O)C[C@@]2(C)[C@@H](CC[C@@H](C)[C@]23Cc2c(O)cc(CO)c(C=O)c2O3)C1(C)C [STBON D, stachybonoid D] | only the metabolites STBON D [+O–H2] and STBON D [+O] were identified | oxidized metabolites ([+O]) |  | conversion in glucuronidation experiments ([2]; human microsomes compared with horse microsomes, 90 min (Figure 7a)): higher signals for STBON D +GlcA and lower signals of the respective parental compound
C[C@@H]1CC[C@H]2C(C)(C)[C@H](O)CC[C@]2(C)[C@@]12Cc1c(O)cc(CO)c(C=O)c1O2 [L-671, L-671,667] | L-671 [+O2–H2] could not be detected |  |  | abundance of sulfate signals among the PSDs [4]: most abundant sulfate signals; number of signals in the XIC of the sulfate (isomers) [4]: two signals; conversion in sulfation experiments [5]: Opposite observations; variation in potential pI metabolites ([3]; HPLC-Orbitrap-HRMS experiments, compared among the four PSDs): largest variation in potential pI metabolites
C[C@@H]1CC[C@H]2C(C)(C)[C@H](O)CC[C@]2(C)[C@@]12Cc1c(O)cc3c(c1O2)CNC3=O [STLAC, stachybotrylactam] | all but the desaturated metabolites were formed | oxidized metabolites ([+O]) | comparable to human microsomes | 
C[C@@H]1CC[C@H]2C(C)(C)[C@H](O)CC[C@]2(C)[C@@]12Cc1c(O)cc(C=O)c(C=O)c1O2 [STDIAL, stachybotrydial] | all but the desaturated metabolites were formed | STDIAL [+O–H4] | comparable to human microsomes | 
CC(=O)O[C@@H]1[C@H](OC(C)=O)C[C@@]2(C)[C@@H](CC[C@@H](C)[C@]23Cc2c(OC4O[C@H](C(=O)O)[C@@H](O)[C@H](O)[C@H]4O)cc(CO)c(C=O)c2O3)C1(C)C (stereo partly shown) [STBON D +GlcA] |  |  |  | glucuronide (+GlcA) formation [6]: identified; glucuronide (+GlcA) formation ([2]; human microsomes, UDPGA 0.3 mM, 0.02 mg/mL PSD, 90 min, HPLC-Orbitrap-HRMS): identified
